Results published in patent US9200051B2, “Peptide compound” (TAKEDA PHARMACEUTICAL COMPANY LIMITED, priority 2013, dated 2015).
pEC50: −log10 of the molar value. Square brackets hold non-standard residues; d marks the D form. Peptide text beside a SMILES is read from it. NMeY = CN[C@@H](Cc1ccc(O)cc1)C(=O)O; αMeF = C[C@](N)(Cc1ccccc1)C(=O)O; Aib = CC(C)(N)C(=O)O

Columns and labels:
Format in all cases: cell-based
human GIPR = target: T1, human GIPR (Homo sapiens, UniProt P48546); test: Agonist activity against human GIPR, CRE-luciferase reporter assay (rise in intracellular cAMP) in hGIPR/CRE-LUC/CHO-K1 cells
T1 construct: expressed in transfected cells; host or cells: CHO-K1 (CRE-LUC/CHO-K1), plasmid hGIPR/pMSRα-neo
T1 sequence (P48546 22-466): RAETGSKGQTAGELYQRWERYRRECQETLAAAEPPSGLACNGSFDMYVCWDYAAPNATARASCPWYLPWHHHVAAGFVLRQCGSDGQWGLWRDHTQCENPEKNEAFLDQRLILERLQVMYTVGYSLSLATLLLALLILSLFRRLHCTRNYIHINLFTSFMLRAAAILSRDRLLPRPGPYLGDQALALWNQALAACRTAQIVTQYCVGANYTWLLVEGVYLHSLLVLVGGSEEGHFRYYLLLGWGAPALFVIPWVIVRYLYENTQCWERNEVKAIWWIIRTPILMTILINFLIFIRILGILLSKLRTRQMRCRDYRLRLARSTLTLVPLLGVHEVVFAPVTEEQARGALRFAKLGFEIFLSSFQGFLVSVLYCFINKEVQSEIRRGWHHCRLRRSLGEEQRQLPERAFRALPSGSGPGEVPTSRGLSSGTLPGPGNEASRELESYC
Text: (§1) Evaluation of agonist activity against human GIPR, human GLP-1R and human glucagon R using rise in intracellular cAMP concentration as index
The human GIPR gene having a sequence identical to the sequence of GenBank Accession No. U39231 was cloned into pMSRα-neo vector to prepare hGIPR/pMSRα-neo.
(§2) The luciferase reporter gene having an upstream cAMP response sequence was introduced to CHO-K1 cells to construct CRE-LUC/CHO-K1 cells.
The plasmid hGIPR/pMSRα-neo obtained in (1) was introduced to the CRE-LUC/CHO-K1 cells obtained in (2) to obtain transformants. Next, a cell line induced to express luciferase, i.e., hGIPR/CRE-LUC/CHO-K1 cells, were selected from the obtained transformants by the addition of GIP.
(§3) The hGIPR/CRE-LUC/CHO-K1 cells were inoculated at a cell density of 25 μL/well (5×10^4 cells/well) to a 384-well white plate (Corning), and cultured overnight in Ham F12 medium containing 10% fetal bovine serum, 100 U/mL penicillin and 100 μg/mL streptomycin in a CO2 incubator of 37° C. A medium containing a test compound was added at a concentration of 5 μL/well to the cells, and the resultant cells were incubated for 4 hours in a CO2 incubator of 37° C. to give the final concentration of 1 μM. PicaGene LT7.5 (Toyo Ink Co., Ltd.) was added thereto at a concentration of 30 μL/well, and the mixture was shaken with light shielded. After 30 minutes, the luciferase activity was measured using a plate reader Envision (PerkinElmer). The luciferase activity in the presence of 10 nM GIP was defined as 100%, and the luciferase activity from the addition of DMSO instead of the test compound was defined as 0%. The GIPR agonist activity was calculated with a rise in intracellular cAMP concentration as an index.

human glucagon R = target: T2, human glucagon R (Homo sapiens, UniProt P47871); test: Agonist activity against human glucagon R, CRE-luciferase reporter assay in hGlucagonR/CRE-LUC/CHO-K1 cells
T2 construct: expressed in transfected cells; host or cells: CHO-K1 (CRE-LUC/CHO-K1), plasmid hGlucagonR/pMSRα-neo
T2 sequence (P47871 26-477): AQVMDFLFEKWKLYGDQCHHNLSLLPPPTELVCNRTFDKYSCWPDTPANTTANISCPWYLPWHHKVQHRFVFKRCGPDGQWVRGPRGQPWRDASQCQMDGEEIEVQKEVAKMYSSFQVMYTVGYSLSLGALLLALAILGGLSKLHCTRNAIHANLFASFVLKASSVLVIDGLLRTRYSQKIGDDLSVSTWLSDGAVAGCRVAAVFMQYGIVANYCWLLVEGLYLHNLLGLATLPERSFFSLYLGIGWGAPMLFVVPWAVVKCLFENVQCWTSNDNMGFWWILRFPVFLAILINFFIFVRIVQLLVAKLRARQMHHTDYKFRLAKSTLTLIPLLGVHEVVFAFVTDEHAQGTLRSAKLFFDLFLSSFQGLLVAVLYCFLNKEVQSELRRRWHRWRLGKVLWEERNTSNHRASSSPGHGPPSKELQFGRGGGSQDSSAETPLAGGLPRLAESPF
Text: as §1, §2
The human glucagon R gene having a sequence identical to the sequence of GenBank Accession No. NM_000160 was cloned into pMSRα-neo vector to prepare hGlucagonR/pMSRα-neo.
The plasmid hGlucagonR/pMSRα-neo obtained in (7) was introduced to the CRE-LUC/CHO-K1 cells obtained in (2) to obtain transformants. Next, a cell line induced to express luciferase, i.e., hGlucagonR/CRE-LUC/CHO-K1 cells, were selected from the obtained transformants by the addition of glucagon.
as §3
(§4) The glucagon R agonist activity was assayed in the same way as above using the hGlucagonR/CRE-LUC/CHO-K1 cells. The luciferase activity in the presence of 10 nM glucagon was defined as 100%, and the luciferase activity from the addition of DMSO instead of the test compound was defined as 0%. The glucagon agonist activity was calculated with a rise in intracellular cAMP concentration as an index.

human GLP-1R = target: T3, human GLP-1R (Homo sapiens, UniProt P43220); test: Agonist activity against human GLP-1R, CRE-luciferase reporter assay in hGLP-1R/CRE-luc/CHO-K1 cells
T3 construct: expressed in transfected cells; host or cells: CHO-K1, plasmids hGLP-1/pIRESneo3 and Cre-luc(Zeo)
T3 sequence (P43220 24-463): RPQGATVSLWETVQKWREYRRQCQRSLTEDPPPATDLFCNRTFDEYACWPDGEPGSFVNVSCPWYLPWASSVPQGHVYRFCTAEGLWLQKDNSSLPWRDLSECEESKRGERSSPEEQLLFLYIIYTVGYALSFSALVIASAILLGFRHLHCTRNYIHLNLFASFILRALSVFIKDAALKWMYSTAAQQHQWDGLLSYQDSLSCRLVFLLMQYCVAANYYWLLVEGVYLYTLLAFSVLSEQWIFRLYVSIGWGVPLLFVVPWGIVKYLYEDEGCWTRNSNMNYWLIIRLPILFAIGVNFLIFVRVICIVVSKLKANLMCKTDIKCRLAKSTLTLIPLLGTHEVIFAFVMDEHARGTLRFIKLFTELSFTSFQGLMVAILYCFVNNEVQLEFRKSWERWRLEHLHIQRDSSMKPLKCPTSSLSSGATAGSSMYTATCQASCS
Text: as §1
Four copies of the cAMP response sequence and the Zeocin resistance gene were introduced to pGL3(R2.2)-Basic Vector (Promega) to construct Cre-luc(Zeo) reporter plasmid.
The human GLP-1R gene having a sequence identical to the sequence of GenBank Accession No. NM_002062 was cloned into pIRESneo3 vector to prepare hGLP-1/pIRESneo3.
The Cre-luc(Zeo) obtained in (3) and the plasmid hGLP-1/pIRESneo3 obtained in (5) were introduced to CHO-K1 cells to obtain transformants. Next, a cell line induced to express luciferase, i.e., hGLP-1R/CRE-luc/CHO-K1 cells, were selected from the obtained transformants by the addition of GLP-1.
as §3
as §4, with “The GLP-1R” for “The glucagon R”, “the hGLP-1R/CRE-luc/CHO-K1” for “the hGlucagonR/CRE-LUC/CHO-K1”, “nM GLP-1” for “nM glucagon”, “The GLP-1R” for “The glucagon”

| Structure (SMILES) | pEC50 (human GIPR) | pEC50 (human glucagon R) | pEC50 (human GLP-1R) |
| --- | --- | --- | --- |
| CC[C@H](C)[C@H](NC(=O)[C@H](C)NC(=O)[C@H](Cc1ccc(O)cc1)NC(=O)[C@H](CC(=O)O)NC(=O)[C@H](CO)NC(=O)[C@@H](NC(=O)[C@](C)(Cc1ccccc1)NC(=O)[C@@H](NC(=O)CNC(=O)[C@H](CCC(=O)O)NC(=O)C(C)(C)NC(=O)[C@@H](N)Cc1ccc(O)cc1)[C@@H](C)O)[C@@H](C)O)C(=O)NC(C)(C)C(=O)N[C@@H](CC(C)C)C(=O)N[C@@H](CC(=O)O)C(=O)N[C@@H](CCCCN)C(=O)N[C@@H](CCC(N)=O)C(=O)N[C@@H](C)C(=O)N[C@@H](CCC(N)=O)C(=O)N[C@@H](C)C(=O)N[C@@H](CCC(=O)O)C(=O)N[C@@H](Cc1ccccc1)C(=O)N[C@H](C(=O)N[C@@H](CCCCN)C(=O)N[C@@H](Cc1c[nH]c2ccccc12)C(=O)N[C@@H](CC(C)C)C(=O)N[C@@H](CC(C)C)C(=O)N[C@@H](CCCCN)C(=O)NCC(=O)NCC(=O)N1CCC[C@H]1C(=O)N[C@@H](CO)C(=O)N[C@@H](CO)C(=O)NCC(=O)N[C@@H](C)C(=O)N1CCC[C@H]1C(=O)N1CCC[C@H]1C(=O)N1CCC[C@H]1C(=O)N[C@@H](CO)C(=O)N[C@@H](CCCCN)C(N)=O)C(C)C [Example 1] (H-Y[Aib]EGT[αMeF]TSDYAI[Aib]LDKQAQAEFVKWLLKGGPSSGAPPPSK-NH2) | 11.09 | < 6.00 | 10.92 |
| CC[C@H](C)[C@H](NC(=O)[C@H](C)NC(=O)[C@H](Cc1ccc(O)cc1)NC(=O)[C@H](CC(=O)O)NC(=O)[C@H](CO)NC(=O)[C@@H](NC(=O)[C@](C)(Cc1ccccc1)NC(=O)[C@@H](NC(=O)CNC(=O)[C@H](CCC(=O)O)NC(=O)C(C)(C)NC(=O)[C@@H](N)Cc1ccc(O)cc1)[C@@H](C)O)[C@@H](C)O)C(=O)NC(C)(C)C(=O)N[C@@H](CC(C)C)C(=O)N[C@@H](CC(=O)O)C(=O)N[C@@H](CCCCN)C(=O)N[C@@H](CCC(N)=O)C(=O)N[C@@H](C)C(=O)N[C@@H](CCC(N)=O)C(=O)N[C@@H](CO)C(=O)N[C@@H](CCC(=O)O)C(=O)N[C@@H](Cc1ccccc1)C(=O)N[C@H](C(=O)N[C@@H](CCCCN)C(=O)N[C@@H](Cc1c[nH]c2ccccc12)C(=O)N[C@@H](CC(C)C)C(=O)N[C@@H](CC(C)C)C(=O)N[C@@H](CCCCN)C(=O)NCC(=O)NCC(=O)N1CCC[C@H]1C(=O)N[C@@H](CO)C(=O)N[C@@H](CO)C(=O)NCC(=O)N[C@@H](C)C(=O)N1CCC[C@H]1C(=O)N1CCC[C@H]1C(=O)N1CCC[C@H]1C(=O)N[C@@H](CO)C(=O)N[C@@H](CCCCN)C(N)=O)C(C)C [Example 3] (H-Y[Aib]EGT[αMeF]TSDYAI[Aib]LDKQAQSEFVKWLLKGGPSSGAPPPSK-NH2) | 11.15 | < 6.00 | 10.89 |
| CC[C@H](C)[C@H](NC(=O)C(C)(C)NC(=O)[C@H](Cc1ccc(O)cc1)NC(=O)[C@H](CC(=O)O)NC(=O)[C@H](CO)NC(=O)[C@@H](NC(=O)[C@](C)(Cc1ccccc1)NC(=O)[C@@H](NC(=O)CNC(=O)[C@H](CCC(=O)O)NC(=O)C(C)(C)NC(=O)[C@@H](N)Cc1ccc(O)cc1)[C@@H](C)O)[C@@H](C)O)C(=O)NC(C)(C)C(=O)N[C@@H](CC(C)C)C(=O)N[C@@H](CC(=O)O)C(=O)N[C@@H](CCCCN)C(=O)N[C@@H](CCC(N)=O)C(=O)N[C@@H](C)C(=O)N[C@@H](CCC(N)=O)C(=O)N[C@@H](CO)C(=O)N[C@@H](CCC(=O)O)C(=O)N[C@@H](Cc1ccccc1)C(=O)N[C@H](C(=O)N[C@@H](CCCCN)C(=O)N[C@@H](Cc1c[nH]c2ccccc12)C(=O)N[C@@H](CC(C)C)C(=O)N[C@@H](CC(C)C)C(=O)N[C@@H](CCCCN)C(=O)NCC(=O)NCC(=O)N1CCC[C@H]1C(=O)N[C@@H](CO)C(=O)N[C@@H](CO)C(=O)NCC(=O)N[C@@H](C)C(=O)N1CCC[C@H]1C(=O)N1CCC[C@H]1C(=O)N1CCC[C@H]1C(=O)N[C@@H](CO)C(=O)N[C@@H](CCCCN)C(N)=O)C(C)C [Example 4] (H-Y[Aib]EGT[αMeF]TSDY[Aib]I[Aib]LDKQAQSEFVKWLLKGGPSSGAPPPSK-NH2) | 11.31 | < 6.00 | 11.00 |
| CC[C@H](C)[C@H](NC(=O)[C@H](C)NC(=O)[C@H](Cc1ccc(O)cc1)NC(=O)[C@H](CC(=O)O)NC(=O)[C@H](CO)NC(=O)[C@@H](NC(=O)[C@](C)(Cc1ccccc1)NC(=O)[C@@H](NC(=O)CNC(=O)[C@H](CCC(=O)O)NC(=O)C(C)(C)NC(=O)[C@@H](N)Cc1ccc(O)cc1)[C@@H](C)O)[C@@H](C)O)C(=O)NC(C)(C)C(=O)N[C@@H](CC(C)C)C(=O)N[C@@H](CC(=O)O)C(=O)N[C@@H](CCCCN)C(=O)N[C@@H](CCC(N)=O)C(=O)N[C@@H](C)C(=O)N[C@@H](CCC(N)=O)C(=O)N[C@@H](C)C(=O)N[C@@H](CCC(=O)O)C(=O)N[C@@H](Cc1ccccc1)C(=O)N[C@H](C(=O)N[C@@H](CCCCN)C(=O)N[C@@H](Cc1c[nH]c2ccccc12)C(=O)N[C@@H](CC(C)C)C(=O)N[C@@H](CC(C)C)C(=O)N[C@@H](CCCCN)C(=O)NCC(=O)NCC(=O)N1CCC[C@H]1C(=O)N[C@@H](CO)C(=O)N[C@@H](CO)C(=O)NCC(=O)N[C@@H](C)C(=O)N1CCC[C@H]1C(=O)N1CCC[C@H]1C(=O)N1CCC[C@H]1C(=O)N[C@@H](CO)C(N)=O)C(C)C [Example 5] (H-Y[Aib]EGT[αMeF]TSDYAI[Aib]LDKQAQAEFVKWLLKGGPSSGAPPPS-NH2) | 11.26 | < 6.00 | 11.14 |
| CC[C@H](C)[C@H](NC(=O)C(C)(C)NC(=O)[C@H](Cc1ccc(O)cc1)NC(=O)[C@H](CC(=O)O)NC(=O)[C@H](CO)NC(=O)[C@@H](NC(=O)[C@](C)(Cc1ccccc1)NC(=O)[C@@H](NC(=O)CNC(=O)[C@H](CCC(=O)O)NC(=O)C(C)(C)NC(=O)[C@H](Cc1ccc(O)cc1)NC)[C@@H](C)O)[C@@H](C)O)C(=O)NC(C)(C)C(=O)N[C@@H](CC(C)C)C(=O)N[C@@H](CC(=O)O)C(=O)N[C@@H](CCCCN)C(=O)N[C@@H](CCC(N)=O)C(=O)N[C@@H](C)C(=O)N[C@@H](CCC(N)=O)C(=O)N[C@@H](C)C(=O)N[C@@H](CCC(=O)O)C(=O)N[C@@H](Cc1ccccc1)C(=O)N[C@H](C(=O)N[C@@H](CCCCN)C(=O)N[C@@H](Cc1c[nH]c2ccccc12)C(=O)N[C@@H](CC(C)C)C(=O)N[C@@H](CC(C)C)C(=O)N[C@@H](CCCCN)C(=O)NCC(=O)NCC(=O)N1CCC[C@H]1C(=O)N[C@@H](CO)C(=O)N[C@@H](CO)C(=O)NCC(=O)N[C@@H](C)C(=O)N1CCC[C@H]1C(=O)N1CCC[C@H]1C(=O)N1CCC[C@H]1C(=O)N[C@@H](CO)C(=O)N[C@@H](CCCCN)C(N)=O)C(C)C [Example 23] (H-[NMeY][Aib]EGT[αMeF]TSDY[Aib]I[Aib]LDKQAQAEFVKWLLKGGPSSGAPPPSK-NH2) | 10.80 | – | 10.80 |
